In PubChem BioAssay (NCI) one finds TGI and GI50 data, which are given here for 15 compounds.

Among the test systems are HCC-2998 colon; SNB-75 CNS; HCT-15 colon; M14 melanoma; EKVX NSCLC; UO-31 renal; OVCAR-3 ovarian; HL-60(TB) leukemia; PC-3 prostate; DU-145 prostate.
Assay in all cases: inhibition of tumour cell growth, NCI panel, 48 h

“And” between values parts separate entries of the source, which are not always exact repeats. Equal values may be shown once.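 Five concentrations, 48 hours, 96-well plates. Abbreviation: GI50, concentration required for 50% inhibition of growth. TGI marks complete inhibition of growth.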 Where only a bound is given, the exact number is not on record here.

Take `CCOc1ccc(NC(=O)C(=O)C(C(=O)c2ccc3ccccc3c2)C2OC(=O)c3ccccc32)cc1` (stereo not drawn): the TGI with HCC-2998 colon was 23.2 µM; in the assay on SNB-75 CNS, 64.9 µM; in the assay on HCT-15 colon, 43.4 µM; in the assay with M14 melanoma it was 42.2 µM; in the assay with EKVX NSCLC, more than 100 µM; in the assay on UO-31 renal, 34 µM. The same compound had a TGI with OVCAR-3 ovarian of 86.8 µM.

As for `CCCCCCCCC/C=C1\CCC(CN(C)C)C1=O` (stereo not drawn), the TGI with HCC-2998 colon turned out to be 10.5 µM; in the assay on SNB-75 CNS it was 6.28 µM; with HCT-15 colon, 4.66 µM; in the assay with M14 melanoma it was 3.57 µM; in the assay with HL-60(TB) leukemia it was 5.31 µM; in the assay with EKVX NSCLC, 4.81 µM. In the assay with UO-31 renal, the TGI worked out at 4.04 µM.

For the compound `Oc1c(Cl)c(Cl)c(O)c2c1CCCC2`, the TGI was found to be 30.6 µM in the assay on HCC-2998 colon; 29.7 µM in the assay with HCT-15 colon; 32.5 µM with M14 melanoma; 36.7 µM in the assay with PC-3 prostate; 21.4 µM with EKVX NSCLC; 5.28 µM in the assay on UO-31 renal.

Turning to `CNC(=O)OCc1c2ccncc2c(C)c2c1[nH]c1ccc(OC)cc12`, the TGI in the assay with HCC-2998 colon is 1.02 µM; with HCT-15 colon, more than 100 µM; in the assay with M14 melanoma, 1.81 µM; with HL-60(TB) leukemia, 0.623 µM; with EKVX NSCLC, more than 100 µM; in the assay on UO-31 renal it was 0.395 µM. For the same compound, in the assay with OVCAR-3 ovarian, the TGI was more than 100 µM.

Take `O=C(Nc1ccc(Oc2cccc(F)c2)c(Cl)c1)c1cnccn1`: the GI50 with HCC-2998 colon is 6.04 µM; with SNB-75 CNS, 1.06 µM; in the assay on HCT-15 colon, 0.28 µM; in the assay on DU-145 prostate it was 2 µM; with M14 melanoma, 0.78 µM; in the assay on HL-60(TB) leukemia, 1.29 µM. For the same compound, the GI50 in the assay on EKVX NSCLC was 2.67 µM; in the assay on UO-31 renal, 2.93 µM; in the assay with OVCAR-3 ovarian, 1 µM. Moreover, the TGI is more than 50 µM in the assay with HCC-2998 colon; 4.22 µM in the assay on SNB-75 CNS; more than 50 µM in the assay with HCT-15 colon; more than 50 µM in the assay on DU-145 prostate; more than 50 µM with M14 melanoma; 3.72 µM in the assay on HL-60(TB) leukemia. Further, the results for the TGI in the assay with EKVX NSCLC, in the assay on UO-31 renal and in the assay on OVCAR-3 ovarian were more than 50 µM, more than 50 µM and 5.15 µM, respectively.

In the case of `C[C@]12CCC(=O)CC1CCCC2=O` (stereo partly drawn), the TGI in the assay with HCC-2998 colon, with SNB-75 CNS, with HCT-15 colon, in the assay on M14 melanoma, with HL-60(TB) leukemia and in the assay with EKVX NSCLC was more than 100 µM in each case. The TGI in the assay with UO-31 renal and with OVCAR-3 ovarian was more than 100 µM in each case.

As for `CCOC(=O)/C(O)=C(/C(=O)OC)c1ccc(Cl)cc1`, the TGI with HCC-2998 colon, in the assay on SNB-75 CNS, with HCT-15 colon, in the assay on M14 melanoma, in the assay on EKVX NSCLC and in the assay on UO-31 renal was more than 100 µM each time. In the assay on OVCAR-3 ovarian, this compound gave a TGI of more than 100 µM.

For the compound `CCCN(CCC)C(=O)C(=O)c1c(N)[nH]n(-c2ccccc2)c1=O`, the TGI in the assay on HCC-2998 colon, in the assay on HCT-15 colon, in the assay on M14 melanoma, with HL-60(TB) leukemia, with EKVX NSCLC and with UO-31 renal was more than 100 µM in each case. In the assay on OVCAR-3 ovarian, this compound had a TGI of more than 100 µM.

As to `CN(C)C(=O)c1ccc([N+](=O)[O-])cc1`, the TGI in the assay on HCC-2998 colon, with SNB-75 CNS, with HCT-15 colon, in the assay with M14 melanoma, in the assay on HL-60(TB) leukemia and with EKVX NSCLC was more than 100 µM throughout. Also, the TGI in the assay with UO-31 renal and with OVCAR-3 ovarian was more than 100 µM in each case.

On to `COc1cccc(NC(=O)CC(=O)N2N=C(N3c4ccccc4Sc4ccccc43)CC2c2ccccc2)c1` (stereo not drawn), for which the TGI with HCC-2998 colon, in the assay with SNB-75 CNS, in the assay on HCT-15 colon, in the assay with M14 melanoma, with EKVX NSCLC and with UO-31 renal was more than 100 µM throughout. The same compound came in with a TGI in the assay on OVCAR-3 ovarian of more than 100 µM.

For `CC(=O)[CH-]C(=O)c1ccccc1.CC(=O)[CH-]C(=O)c1ccccc1.CC(=O)[CH-]C(=O)c1ccccc1.[In+3]`, the GI50 is 19.8 µM in the assay on SNB-75 CNS; 26.8 µM in the assay on M14 melanoma; 14.5 µM in the assay with HL-60(TB) leukemia; 29.7 µM in the assay with UO-31 renal; 78 µM in the assay on OVCAR-3 ovarian. Also, the TGI in the assay on SNB-75 CNS is more than 100 µM; with M14 melanoma it was more than 100 µM; in the assay on HL-60(TB) leukemia, 41.2 µM; in the assay on UO-31 renal, 94 µM; in the assay on OVCAR-3 ovarian, more than 100 µM.

As to `CN1CCc2[nH]nc(-c3n[nH]c4c3CN(C)CC4)c2C1`, the TGI with HCC-2998 colon, in the assay on HCT-15 colon, in the assay on DU-145 prostate, in the assay with M14 melanoma, in the assay with PC-3 prostate and with EKVX NSCLC was more than 100 µM each time. Besides, the TGI in the assay with UO-31 renal and in the assay on OVCAR-3 ovarian was more than 100 µM each time.

Take `COc1cc(C2c3cc4c(cc3[C@@H](NCCN3CCOCC3)C3COC(=O)[C@H]23)OCO4)cc(OC)c1O` (stereo partly drawn): the TGI in the assay on HCC-2998 colon is 11.5 µM and 7.24 µM; in the assay with SNB-75 CNS it was 1.8 µM and 11.6 µM; in the assay with HCT-15 colon, 15.7 µM and 14.2 µM; in the assay on M14 melanoma, 11.7 µM and > 17.5 µM; with EKVX NSCLC, 54.4 µM and > 17.5 µM; in the assay with UO-31 renal, 5.13 µM and 6.38 µM. In addition, the TGI in the assay on OVCAR-3 ovarian was 21.5 µM and 14.3 µM.

On to `N#CNC(=NCCc1c[nH]c2ccccc12)Oc1ccccc1`, for which the TGI in the assay with HCC-2998 colon, in the assay with SNB-75 CNS, in the assay with HCT-15 colon, with M14 melanoma, in the assay on HL-60(TB) leukemia and with EKVX NSCLC was more than 100 µM in each case. For the same compound, the TGI with UO-31 renal and in the assay on OVCAR-3 ovarian was more than 100 µM in each case.

As to `COC(=O)C(CC1=C(O)Nc2ccccc2N1)/C(=N/NC(N)=O)C(=O)Nc1ccccc1C` (stereo not drawn), the TGI in the assay on HCC-2998 colon is more than 100 µM; with SNB-75 CNS it was more than 100 µM; in the assay with HCT-15 colon, 34.1 µM; in the assay with M14 melanoma it was more than 100 µM; with HL-60(TB) leukemia, more than 100 µM; in the assay with EKVX NSCLC, more than 100 µM. For the same compound, the TGI in the assay with UO-31 renal and in the assay with OVCAR-3 ovarian was more than 100 µM in each case.
